Laboratory results as given in patent US10085971B2, “Pharmaceutical solution of asenapine for sublingual or buccal use” (Navinta III Inc, priority 2016, dated 2018).
Counter-ions that a name gives are not always drawn.

Tests used:
[1] = oral dosing in human patients; cited from earlier work
[2] = Solubility in ethanol water mixture; format: physicochemical; settings: both crystal forms

Solubility [2] | Compound | Side effects of oral dosing [1]
– | CN1C[C@H]2c3ccccc3Oc3ccc(Cl)cc3[C@@H]2C1 (relative stereo) [Asenapine, trans-5-chloro-2-methyl-2,3,3a, 12b-tetrahydro-1 H-dibenz[2,3:6,7]oxepino-[4,5-c]pyrrole] | serious cardiotoxic side effects including postural hypotension
good solubility | CN1CC2c3ccccc3Oc3ccc(Cl)cc3C2C1 (centres unmarked) [Asenapine maleate] | –
